Consider nine compounds from patent US20230225321A1, “ARTHROPOD REPELLENTS OBTAINED BY CHEMICALLY CONVERTING LACTIC ACID, LACTATES OR OTHER LACTIC ACID DERIVATIVES” (UNIVERSIDADE FEDERAL DO PARANA, priority 2020, published 2023).

One assay has as its system mosquitoes. As to conditions: cited from earlier work.
The subject of assay [1] is female A. aegypti mosquitoes. Briefly: Repellency test, treated hand in cage of mosquitoes, time to first bite. Type of assay: in vivo. Conditions: for Repellency: repellency time until first bite, solutions of 15 to 20% in ethanol applied to hand, cage with 20 female A. aegypti. How it is done: Repellency tests can be carried out in the laboratory, at a temperature of 20° C.±2° C. and a relative humidity of 50 to 60%. Temperature and relative humidity data should be monitored and recorded using a digital thermohygrometer during the experiments.
To perform the tests, there were used wooden cages with screens on the sides and glass on the upper face measuring 30 cm×30 cm×30 cm containing 20 female A. aegypti mosquitoes, all mated with no previous blood meal. The tests must be carried out during the daytime, respecting the preference for the mosquito's hematophagy activity.
For the tests, one of the hands of the analyzer must be sanitized with neutral soap and then the upper, lower, lateral face and the region between the fingers must be treated with repellent solutions in ethanol, in order for the compounds to have their repellency activities evaluated. […]
When the first bite occurs, the experiment is interrupted, and the time is recorded by a digital stopwatch.

For `CCN(CC)C(=O)c1cccc(C)c1` [DEET, N,N-diethyl-3-methylbenzamide], the “long-lasting effect (duration)” value with mosquitoes (concentration of 20% to 30% of the compound) was “more than 6 hours”.

Regarding `CCCCN(CCC(=O)OCC)C(C)=O` [IR 3535, ethyl butylacetylaminopropionate], the effectiveness result in the assay with mosquitoes (used in a concentration above 10%) is “slightly lower compared to DEET”.

In the case of `CCC(C)OC(=O)N1CCCCC1CCO` (centres unmarked) [Icaridin], the “protection (duration)” value in the assay with mosquitoes (concentration of 20%) was “up to 10 hours”. The “minimum concentration for repellent action” value in the assay on mosquitoes (in vivo) is 5%.

The compound `CCCC(=O)OC(C)C(=O)N1CCCC1` (centres unmarked) [Input 2] yielded a Repellency in assay [1] above 10 h.

For the compound `CCCC(=O)O[C@@H](C)C(=O)N(CC)CC` [Input 3], the Repellency in assay [1] was 2 h.

Regarding `CCN(CC)C(=O)[C@H](C)OC(C)=O` [Input 4], the Repellency in assay [1] came out at 5 h.

As for `CCCC(=O)O[C@@H](C)C(=O)N1CCCCC1` [Input 5], in assay [1], the Repellency was above 10 h.

In the case of `C[C@H](O)C(=O)N1CCCC1` [Input 7], the Repellency in assay [1] was 0 h.

As for `CCCC(=O)O[C@@H](C)C(=O)N1CCCC1` [Input 8], the Repellency in assay [1] is above 12 h. In addition, the “result in terms of repellency time (comparison within Table 1)” value in assay [1] (solutions of 15 to 20% in ethanol) was “best result in terms of repellency time”.
